Measured values from the supplement of paper PMC7017272.
± gives the standard deviation of the averaged measurements.

What was measured:
Details in all cases: treatment time: 3 days
UT-SCC-42B [1] = experiment: drug sensitivity score (DSS); higher = more sensitive; extreme values may be limits of the assay
Outline: (§1)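 HPV-negative HNSCC cell lines were seeded at 500 cells/well in 384-well plates on plastic, on Matrigel- or Myogel-coated wells (500 µg/mL), or embedded in Matrigel or Myogel plus rat collagen I. Compounds were given at five 10-fold concentrations for 3 days, and viability was read by CellTiter-Glo 2.0 luminescence. Signals were normalised to vehicle (0.1% DMSO) and cell-killing control wells. Percent-inhibition dose–response curves were fitted in the FIMM pipeline to derive IC50, maximal inhibition and drug sensitivity score.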

UT-SCC-106A = experiment: as above
Outline: as §1

UT-SCC-28 = experiment: as above
Outline: as §1

UT-SCC-8 = experiment: as above
Outline: as §1

UT-SCC-44 = experiment: as above
Outline: as §1

UT-SCC-40 = experiment: as above
Outline: as §1

UT-SCC-14 [2] = experiment: as above
Outline: as §1

UT-SCC-73 = experiment: as above
Outline: as §1

UT-SCC-42A = experiment: as above
Outline: as §1

UT-SCC-81 [3] = experiment: as above
Outline: as §1

UT-SCC-24B = experiment: as above
Outline: as §1

UT-SCC-24A [4] = experiment: maximal % inhibition of viability relative to DMSO; higher = stronger effect
Experimental: (§2)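 HNSCC cell lines (500 cells/well, 384-well) were cultured on plastic, on top of (2D) or embedded (3D) in Matrigel or human leiomyoma matrix Myogel (500 ug/mL; Myogel 3D mixed with rat collagen I). Cells were treated for 3 days with 5 ten-fold concentrations of each drug, and viability was read by CellTiter-Glo. Viability was normalised to DMSO (0% inhibition) and 100 uM benzethonium chloride (100% inhibition) controls and fitted with the FIMM DSRT pipeline to give IC50 (nM), maximal % inhibition and the drug sensitivity score (DSS). Suffixes _1/_2/_3 on drug names are replicates.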

UT-SCC-24A [5] = experiment: drug sensitivity score (DSS); higher = more sensitive
Experimental: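 HNSCC cell lines (500 cells/well, 384-well) were cultured on plastic, on top of (2D) or embedded (3D) in Matrigel or human leiomyoma matrix Myogel (500 ug/mL; Myogel 3D mixed with rat collagen I). Cells were treated for 3 days with 5 ten-fold concentrations of each drug, and viability was read by CellTiter-Glo. Suffixes _1/_2/_3 on drug names are replicates.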

UT-SCC-24A [6] = experiment: relative IC50 (midpoint of the fitted curve; maximal inhibition may be below 50%); higher = less potent
Experimental: as §2

UT-SCC-42B [7] = experiment: maximal % inhibition of viability relative to DMSO; higher = stronger effect
Experimental: as §2, with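 “DMSO” for “DMSO (0% inhibition)”, “and” for “and 100 uM”, “chloride” for “chloride (100% inhibition)”, “DSS.” for “the drug sensitivity score (DSS).”, “_1/_2/_3” for “_1/_2/_3 on drug names”, “replicates. Only inhibition-mode (IC50) fits are kept.” for “replicates.”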

UT-SCC-14 [8] = experiment: as above
Experimental: as §2, with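 “DMSO” for “DMSO (0% inhibition)”, “and” for “and 100 uM”, “chloride” for “chloride (100% inhibition)”, “DSS.” for “the drug sensitivity score (DSS).”, “_1/_2/_3” for “_1/_2/_3 on drug names”, “replicates. Only inhibition-mode (IC50) fits are kept.” for “replicates.”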

UT-SCC-81 [9] = experiment: as above
Experimental: as §2, with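 “DMSO” for “DMSO (0% inhibition)”, “and” for “and 100 uM”, “chloride” for “chloride (100% inhibition)”, “DSS.” for “the drug sensitivity score (DSS).”, “_1/_2/_3” for “_1/_2/_3 on drug names”, “replicates. Only inhibition-mode (IC50) fits are kept.” for “replicates.”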

[10] = culture condition: embedded in Matrigel
[11] = culture condition: on top of Matrigel
[12] = culture condition: on top of Myogel
[13] = culture condition: plastic 2D (no matrix)
[14] = culture condition: embedded in Myogel + collagen I

Structure (SMILES): O=C(NC[C@H](O)CO)c1ccncc1Nc1ccc(I)cc1F [Pimasertib]
- drug sensitivity score (UT-SCC-42B [1]; [10]): 24.5 ± 2.7 DSS
- drug sensitivity score (UT-SCC-42B [1]; [11]): 16.2 ± 1 DSS
- drug sensitivity score (UT-SCC-42B [1]; [12]): 9.77 ± 0.96 DSS
- drug sensitivity score (UT-SCC-42B [1]; [13]): 10.1 ± 0.55 DSS
- drug sensitivity score (UT-SCC-106A; [10]): 19.4 ± 0.44 DSS
- drug sensitivity score (UT-SCC-106A; [14]): 5.6 ± 0.27 DSS
- drug sensitivity score (UT-SCC-106A; [11]): 22.2 ± 0.52 DSS
- drug sensitivity score (UT-SCC-106A; [12]): 6.27 ± 0.74 DSS
- drug sensitivity score (UT-SCC-106A; [13]): 22.2 ± 0.74 DSS
- drug sensitivity score (UT-SCC-28; [10]): 12 ± 2.6 DSS
- drug sensitivity score (UT-SCC-28; [14]): 9.97 ± 5.3 DSS
- drug sensitivity score (UT-SCC-28; [11]): 11.4 ± 1.6 DSS
- drug sensitivity score (UT-SCC-28; [13]): 5.03 ± 1.1 DSS
- drug sensitivity score (UT-SCC-8; [10]): 20.5 ± 1.8 DSS
- drug sensitivity score (UT-SCC-8; [14]): 10.7 ± 0.15 DSS
- drug sensitivity score (UT-SCC-8; [11]): 18.2 ± 1.3 DSS
- drug sensitivity score (UT-SCC-8; [12]): 17 ± 1.6 DSS
- drug sensitivity score (UT-SCC-8; [13]): 16.9 ± 1.8 DSS
- drug sensitivity score (UT-SCC-44; [10]): 26.7 ± 2.9 DSS
- drug sensitivity score (UT-SCC-44; [14]): 11.7 ± 3 DSS
- drug sensitivity score (UT-SCC-44; [11]): 22.7 ± 1.1 DSS
- drug sensitivity score (UT-SCC-44; [12]): 13.1 ± 2.4 DSS
- drug sensitivity score (UT-SCC-44; [13]): 16.4 ± 4 DSS
- drug sensitivity score (UT-SCC-40; [10]): 27.63 ± 0.058 DSS
- drug sensitivity score (UT-SCC-40; [14]): 20.2 ± 1.9 DSS
- drug sensitivity score (UT-SCC-40; [11]): 23.8 ± 1.2 DSS
- drug sensitivity score (UT-SCC-40; [12]): 14.9 ± 0.91 DSS
- drug sensitivity score (UT-SCC-40; [13]): 15.5 ± 0.85 DSS
- drug sensitivity score (UT-SCC-14 [2]; [10]): 13.9 ± 3.4 DSS
- drug sensitivity score (UT-SCC-14 [2]; [14]): 12.2 ± 5.1 DSS
- drug sensitivity score (UT-SCC-14 [2]; [11]): 10.6 ± 2.3 DSS
- drug sensitivity score (UT-SCC-14 [2]; [12]): 8.27 ± 2.3 DSS
- drug sensitivity score (UT-SCC-14 [2]; [13]): 8.03 ± 3.4 DSS
- drug sensitivity score (UT-SCC-73; [10]): 27.8 ± 0.5 DSS
- drug sensitivity score (UT-SCC-73; [14]): 18.7 ± 4.6 DSS
- drug sensitivity score (UT-SCC-73; [11]): 25.9 ± 0.64 DSS
- drug sensitivity score (UT-SCC-73; [12]): 19.1 ± 1.1 DSS
- drug sensitivity score (UT-SCC-73; [13]): 23 ± 0.68 DSS
- drug sensitivity score (UT-SCC-42A; [10]): 20.9 ± 0.5 DSS
- drug sensitivity score (UT-SCC-42A; [14]): 9.43 ± 1.3 DSS
- drug sensitivity score (UT-SCC-42A; [11]): 20.5 ± 1.6 DSS
- drug sensitivity score (UT-SCC-42A; [12]): 12.8 ± 0.46 DSS
- drug sensitivity score (UT-SCC-42A; [13]): 16.33 ± 0.12 DSS
- drug sensitivity score (UT-SCC-81 [3]; [10]): 29.9 ± 0.51 DSS
- drug sensitivity score (UT-SCC-81 [3]; [14]): 9.3 ± 3.1 DSS
- drug sensitivity score (UT-SCC-81 [3]; [11]): 24 ± 1.8 DSS
- drug sensitivity score (UT-SCC-81 [3]; [12]): 9.87 ± 0.5 DSS
- drug sensitivity score (UT-SCC-81 [3]; [13]): 14.9 ± 1.4 DSS
- drug sensitivity score (UT-SCC-24B; [10]): 15.6 ± 1.2 DSS
- drug sensitivity score (UT-SCC-24B; [14]): 14.4 ± 2 DSS
- drug sensitivity score (UT-SCC-24B; [11]): 15 ± 0.9 DSS
- drug sensitivity score (UT-SCC-24B; [12]): 9.1 ± 0.61 DSS
- drug sensitivity score (UT-SCC-24B; [13]): 20.3 ± 1.8 DSS
- maximal % inhibition of viability (UT-SCC-24A [4]; [10]): 85 ± 0.94%
- maximal % inhibition of viability (UT-SCC-24A [4]; [14]): 77.9 ± 2.9%
- maximal % inhibition of viability (UT-SCC-24A [4]; [11]): 81.4 ± 1.8%
- maximal % inhibition of viability (UT-SCC-24A [4]; [12]): 68 ± 3.4%
- maximal % inhibition of viability (UT-SCC-24A [4]; [13]): 79.3 ± 2.7%
- drug sensitivity score (UT-SCC-24A [5]; [10]): 34.8 ± 1.2 DSS
- drug sensitivity score (UT-SCC-24A [5]; [14]): 18.5 ± 1.2 DSS
- drug sensitivity score (UT-SCC-24A [5]; [11]): 31.6 ± 0.84 DSS
- drug sensitivity score (UT-SCC-24A [5]; [12]): 15 ± 1.6 DSS
- drug sensitivity score (UT-SCC-24A [5]; [13]): 28.3 ± 1.6 DSS
- relative IC50 (UT-SCC-24A [6]; [10]): 4.15 nM
- relative IC50 (UT-SCC-24A [6]; [14]): 77 nM
- relative IC50 (UT-SCC-24A [6]; [11]): 6.19 nM
- relative IC50 (UT-SCC-24A [6]; [12]): 105 nM
- relative IC50 (UT-SCC-24A [6]; [13]): 10.2 nM
- maximal % inhibition of viability (UT-SCC-42B [7]; [10]): 70.2 ± 1.9%
- maximal % inhibition of viability (UT-SCC-42B [7]; [11]): 59.9 ± 2.8%
- maximal % inhibition of viability (UT-SCC-42B [7]; [12]): 53 ± 2.7%
- maximal % inhibition of viability (UT-SCC-42B [7]; [13]): 49.2 ± 3.8%
- maximal % inhibition of viability (UT-SCC-14 [8]; [10]): 64.8 ± 6.5%
- maximal % inhibition of viability (UT-SCC-14 [8]; [14]): 59.6 ± 4.5%
- maximal % inhibition of viability (UT-SCC-14 [8]; [11]): 59.6 ± 6.8%
- maximal % inhibition of viability (UT-SCC-14 [8]; [12]): 54.7 ± 9.3%
- maximal % inhibition of viability (UT-SCC-14 [8]; [13]): 57.1 ± 10%
- maximal % inhibition of viability (UT-SCC-81 [9]; [10]): 88.7 ± 1.7%
- maximal % inhibition of viability (UT-SCC-81 [9]; [14]): 68.2 ± 0.36%
- maximal % inhibition of viability (UT-SCC-81 [9]; [11]): 86.1 ± 0.46%
- maximal % inhibition of viability (UT-SCC-81 [9]; [12]): 71.2 ± 2.8%
- maximal % inhibition of viability (UT-SCC-81 [9]; [13]): 78.6 ± 1.5%
